This note sets out measurements from PubChem BioAssay (NCI).

Structures are written as SMILES.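 These data come from cells grown in 96-well plates and exposed to compound for 48 hours at five concentrations. GI50 = concentration required for 50% inhibition of growth. The concentration for full growth arrest is given as TGI.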

Some test systems named below: 786-0 renal; A498 renal; A549 NSCLC; COLO 205 colon; HCC-2998 colon; M14 melanoma; NCI-H522 lung; SNB-75 CNS; HCT-15 colon.
Test in all cases: growth of human tumour cells (NCI), 48 h

Turning to `O=C(/C=C1/NC(=O)CS1)Nc1ccccc1`, the TGI in the assay on 786-0 renal, in the assay on A498 renal, with A549 NSCLC, with COLO 205 colon, in the assay on HCC-2998 colon and with M14 melanoma was greater than 100 µM in each case. Further, the TGI in the assay with NCI-H522 lung and in the assay on SNB-75 CNS was greater than 100 µM in each case.
For the molecule `O=C1C[C@@H]2CCCC[C@@H]2C12SCCS2`, the TGI in the assay on 786-0 renal, in the assay with A498 renal, with A549 NSCLC, in the assay on COLO 205 colon, in the assay on HCC-2998 colon and in the assay with HCT-15 colon was greater than 100 µM each time. Further, the TGI in the assay on NCI-H522 lung and with SNB-75 CNS was greater than 100 µM in each case.
With `N#C[S-].[Au+].c1ccc(CN2[CH-]N(Cc3ccccc3)C(c3ccccc3)=C2c2ccccc2)cc1`, the GI50 in the assay with 786-0 renal was 0.444 µM; in the assay on A498 renal, 0.251 µM; in the assay on A549 NSCLC, 0.593 µM; in the assay with SNB-75 CNS, 0.385 µM. Further, the TGI amounted to 1.91 µM with 786-0 renal, 0.822 µM with A498 renal, 3.24 µM in the assay on A549 NSCLC and 2.65 µM with SNB-75 CNS.
In the case of `NC(CCSC(F)F)C(=O)O` (stereo unspecified), the TGI in the assay with 786-0 renal, in the assay with A549 NSCLC, with COLO 205 colon, in the assay on HCC-2998 colon, in the assay with M14 melanoma and in the assay with NCI-H522 lung was greater than 100 µM throughout. Moreover, the TGI in the assay on SNB-75 CNS is greater than 100 µM.
Turning to `COc1cc(/C=C2/C(=O)NC(Cc3cc(OC)c(OC)c(C)c3OC)C(=O)N2Cc2ccccc2)c(OC)c(C)c1OC` (stereo unspecified), the TGI in the assay with 786-0 renal was greater than 100 µM; in the assay with A498 renal it was greater than 100 µM; with A549 NSCLC, greater than 100 µM; with COLO 205 colon, 35 µM; in the assay on HCC-2998 colon it was greater than 100 µM; in the assay on M14 melanoma, greater than 100 µM. In addition, the TGI was 60.2 µM in the assay with NCI-H522 lung and greater than 100 µM with SNB-75 CNS.
For `COc1ccc2c(c1)CC1c3c(cc4c(c3-2)OCO4)CCN1C` (stereo unspecified), the TGI is greater than 100 µM with 786-0 renal; 31.7 µM in the assay on A498 renal; 61 µM with A549 NSCLC; 30.9 µM with COLO 205 colon; greater than 100 µM with HCC-2998 colon; greater than 100 µM in the assay with HCT-15 colon. Moreover, the TGI with M14 melanoma came to 62.9 µM; in the assay on NCI-H522 lung, 38.7 µM; in the assay with SNB-75 CNS, 56.9 µM.
Regarding `C=CCN=C1NC(=O)C(CC(=O)Nc2ccc(C)cc2)S1` (stereo unspecified), the TGI in the assay on 786-0 renal, in the assay with A498 renal, in the assay on A549 NSCLC, with COLO 205 colon, with HCC-2998 colon and in the assay with HCT-15 colon was greater than 100 µM in each case. Further, the TGI with M14 melanoma, in the assay on NCI-H522 lung and in the assay on SNB-75 CNS was greater than 100 µM throughout.
As for `CC12CC3CC(C1)CC(N=[N+]=[N-])(C3)C2`, the TGI in the assay with 786-0 renal, in the assay with A498 renal, with A549 NSCLC, with COLO 205 colon, in the assay on HCC-2998 colon and in the assay on M14 melanoma was greater than 100 µM throughout. Further, the TGI with NCI-H522 lung and in the assay on SNB-75 CNS was greater than 100 µM in each case.
On to `COc1cc(C(=O)CC2(O)C(=O)Nc3c(Cl)cc(Cl)cc32)ccc1O` (stereo unspecified), for which the TGI with 786-0 renal is greater than 100 µM; in the assay on A549 NSCLC, greater than 100 µM; with COLO 205 colon, 83.5 µM; in the assay with HCC-2998 colon it was 88.7 µM; with HCT-15 colon, greater than 100 µM; with M14 melanoma, greater than 100 µM. For the same molecule, the figures for the TGI in the assay on NCI-H522 lung and with SNB-75 CNS were greater than 100 µM and 93 µM, respectively.
In the case of `Cc1ccc(C2=C(c3ccccc3)C(Br)(c3ccccc3)C(c3ccccc3)=C2c2ccc(C)cc2)cc1`, the TGI with 786-0 renal, in the assay with A498 renal, in the assay on A549 NSCLC, with COLO 205 colon, in the assay on HCT-15 colon and in the assay on M14 melanoma was greater than 100 µM each time. Further, the TGI with NCI-H522 lung and in the assay with SNB-75 CNS was greater than 100 µM throughout.
For the molecule `C=C(C)[C@H](O)C(O)CC(C)[C@@H]1CCC23CC12CCC1[C@@]2(C)CCC(OC(C)=O)C(C)(C)C2CC(OC2OC(COC(C)=O)C(O)C(O)C2O)[C@]13C` (stereo partly specified), the TGI is 13.7 µM in the assay with 786-0 renal; 14.7 µM in the assay on A498 renal; 12.2 µM in the assay on A549 NSCLC; 12.6 µM in the assay on COLO 205 colon; 12.4 µM in the assay with HCC-2998 colon; 10.4 µM in the assay with HCT-15 colon. Also, the TGI in the assay with M14 melanoma was found to be 9.11 µM; in the assay on NCI-H522 lung it was 9.91 µM; in the assay with SNB-75 CNS, 9.03 µM.
Take `O=C1CCCC1NC(=O)C(F)(F)F` (stereo unspecified): the TGI with 786-0 renal, with A498 renal, in the assay on A549 NSCLC, in the assay with M14 melanoma, in the assay on NCI-H522 lung and in the assay with SNB-75 CNS was greater than 100 µM throughout.
For `COC(=O)C(CC(=O)Nc1ccc(Cl)c(Cl)c1)C(=O)C(=O)NC1C2CC3CC(C2)CC1C3` (stereo unspecified), the TGI in the assay with 786-0 renal, in the assay with A498 renal, in the assay with A549 NSCLC, with COLO 205 colon, with HCC-2998 colon and in the assay on HCT-15 colon was greater than 100 µM each time. Moreover, the TGI in the assay with M14 melanoma and in the assay on NCI-H522 lung was greater than 100 µM in each case.
With `O=C1C[C@H]2CC3(CC[C@H]2CN1)OCCO3`, the TGI in the assay with 786-0 renal, with A498 renal, in the assay on A549 NSCLC, in the assay on COLO 205 colon, in the assay on HCC-2998 colon and with HCT-15 colon was greater than 100 µM each time. Besides, the TGI in the assay on M14 melanoma, in the assay on NCI-H522 lung and in the assay on SNB-75 CNS was greater than 100 µM throughout.
Regarding `Cc1ccc(N2C(=O)/C(=C/c3ccc(N(CCC#N)CCC#N)cc3C)N=C2c2cc([N+](=O)[O-])ccc2Cl)cc1`, the TGI in the assay on 786-0 renal, with A498 renal, with A549 NSCLC, in the assay on COLO 205 colon, in the assay on HCC-2998 colon and in the assay with HCT-15 colon was greater than 100 µM throughout. For the same molecule, the TGI with M14 melanoma, in the assay with NCI-H522 lung and in the assay on SNB-75 CNS was greater than 100 µM in each case.
With `CCOC(=O)NC(=O)c1cn(CCN2CCN(C(=O)NCCCCCCNC(=O)N3CCN(CCn4cc(C(=O)NC(=O)OCC)c(=O)n(CCN(CC)CC)c4=O)CC3)CC2)c(=O)n(CCC(CC)CC)c1=O`, the TGI in the assay with 786-0 renal, with A498 renal, in the assay with A549 NSCLC, in the assay with COLO 205 colon, with HCC-2998 colon and with HCT-15 colon was greater than 100 µM throughout. The TGI in the assay with M14 melanoma, in the assay on NCI-H522 lung and with SNB-75 CNS was greater than 100 µM in each case.
